Read-outs that look alike come from different tables or passages of the source.
Tests used:
rat brain MAO-A = target: T1, rat brain MAO-A (Rattus norvegicus, UniProt P21396); test: In vitro inhibition of rat brain MAO-A; format: biochemical; conditions: read-out: inhibition of MAO-A
T1 construct: from tissue; host or cells: rat brain homogenate, 4500 g pellet
T1 sequence (P21396 1-526): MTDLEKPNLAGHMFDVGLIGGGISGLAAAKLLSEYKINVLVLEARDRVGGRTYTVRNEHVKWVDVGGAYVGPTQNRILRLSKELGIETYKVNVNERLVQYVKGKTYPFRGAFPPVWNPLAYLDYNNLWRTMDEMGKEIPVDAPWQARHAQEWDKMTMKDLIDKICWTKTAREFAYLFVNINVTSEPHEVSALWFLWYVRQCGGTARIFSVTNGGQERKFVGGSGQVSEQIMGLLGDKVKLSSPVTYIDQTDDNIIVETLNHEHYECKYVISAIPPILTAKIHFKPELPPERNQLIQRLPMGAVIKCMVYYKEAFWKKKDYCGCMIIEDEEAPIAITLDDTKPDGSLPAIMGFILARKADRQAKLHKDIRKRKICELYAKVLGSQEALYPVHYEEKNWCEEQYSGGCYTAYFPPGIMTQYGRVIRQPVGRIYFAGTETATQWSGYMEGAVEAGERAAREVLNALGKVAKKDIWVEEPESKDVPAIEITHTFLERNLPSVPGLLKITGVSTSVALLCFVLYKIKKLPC
Protocol: Rats were decapitated and the brains were quickly taken into a weighted ice-cold sucrose buffer (0.32 M), and their weights were determined. All subsequent procedures were performed at 0-4° C. The brains were homogenized in 0.25 M sucrose (one part tissue to 20 parts sucrose) in a Teflon glass homogenizer followed by the addition of sucrose buffer to a final concentration of 10% homogenate. The homogenates were centrifuged at 600 g for 15 min. The supernatant fraction was taken out and centrifuged at 4500 g for 30 min, the pellet was diluted in 0.32 M sucrose buffer and kept frozen for later assaying of MAO. Protein concentration was determined with Bradford reagent at 595 nm, using bovine serum albumin as a standard.
The test compound was added to a suitable dilution of the enzyme preparation (70 μg protein for MAO-B and 150 μg MAO-A assay) in 0.05 M phosphate buffer (pH 7.4). The mixture was incubated together with […], a specific inhibitor of MAO-B (for determination of MAO-A) or […] clorgylin, a specific inhibitor of MAO-A (for determination of MAO-B). Incubation was carried for 1 h at 37° C. before addition of ^14C-5-hydroxytryptamine binoxalate ([…]) for determination of MAO-A, or ^14C-phenylethylamine 100 µM for determination of MAO-B, and incubation continued for 30 min or 20 min, respectively. The reaction was stopped with 2 M ice-cold citric acid, and the metabolites were extracted and determined by liquid-scintillation counting in cpm units.
MAO-A and MAO-B activities were determined in rat brain homogenate in vitro following incubation with varying concentrations of the test compounds.
In another experiment, the in vitro inhibitory activity of HLA20, M32, VK-28, M30, M31, and propargylamine (P) was tested against rat brain MAO-A. The test compounds were added to buffer containing 10^−7M deprenyl and were incubated with the tissue homogenate for 60 min at 37° C. before addition of ^14C-5-hydroxytryptamine. MAO-A activity in presence of the test compound was expressed as a percentage of that in control samples.

[1] = n-octanol/water shake-flask distribution coefficient; format: physicochemical
From the text: The partition coefficient (Pow) or the distribution ratio (Dow) between octanol and water are most commonly used measures of the hydrophobicity of compounds. Dow can depend on the concentration of solute, but at reasonably low concentrations. If the solute is in the same form in both phases, Dow becomes constant and is called the partition coefficient Pow. Pow plays an important role in determining the physico-chemical properties and the behaviour of numerous organic compounds in biological systems. Pow is applied to quantitative structure-activity relationship studies, and as a measure of hydrophobicity. All the partition measurements are carried out using a 1-octanol/water shake-flask procedure (Leo, A J. 1991, “Hydrophobic parameter: measurement and calculation”, Methods Enzymol. 202:544-91) or simply by the elution time of solute from HPLC column. Thereafter, the transport properties of the iron-complexes are examined in the water/lipid membrane system (liposomes), which mimics biomembranes much better than the octanol/water system (Breuer et al, 1995).
1-Octanol (Riedel-deHaën, synthesis grade (250-270 nm abs.<0.06) and glass distilled deionized water were used as the partitioning solutions. A Hewlett-Packard 8450A diode array spectrophotometer was used for the quantitative determination of the tested com-pounds in the standard solutions and in the partitioned solutions. The aqueous phase stock solutions were shaken with an excess of 1-octanol to presaturate them and were then allow-ed to stand overnight before use. The 1-octanol stock solutions were also presaturated with 10 mM NaOH and allowed to settle overnight. The experiments were performed in 10-ml stoppered centrifuge tubes. The tubes were inverted gently for 5 min and then, to assure complete phase separation, they were centrifuged for 20 min at 1,000-2,000 g. The aqueous and organic phases were removed separately and analyzed by UV spectrophotometry.
Lipophilicity plays an important role in drug absorption and distribution. The logarithm of the n-octanol/water distribution coefficients (logD) is the most commonly used measure of the lipophilicity of a drug candidate. Here we used an n-octanol/water shake-flask procedure to determine logD. […] In acidic and basic solution, all the test compounds have low log D values, which refer to a good hydrophilicity. This can be explained by the formation of oxinium chloride (in acid) and sodium oxinate (in base) derivatives.

| SMILES | inhibition at 100 µM (rat brain MAO-A; 100 μM) | logD ([1]; H2O, read-out: LogD in H2O) | D in 0.01N HCl ([1]; distribution ratio D = Corg/Caq, 0.01N HCl) | D in 0.01N NaOH ([1]; distribution ratio D = Corg/Caq, 0.01N NaOH) | D in H2O ([1]; distribution ratio D = Corg/Caq, H2O) | logD ([1]; pH 2, 0.01N HCl, read-out: LogD in 0.01N HCl) | logD ([1]; pH 12, 0.01N NaOH, read-out: LogD in 0.01N NaOH) | inhibition at 100 µM (rat brain MAO-A) |
| --- | --- | --- | --- | --- | --- | --- | --- | --- |
| OCCN1CCN(Cc2ccc(O)c3ncccc23)CC1 [VK-28, 5-[4-(2-hydroxyethyl)piperazin-1-ylmethyl]-8-hydroxyquinoline, reference compound] | 15.1% | – | – | – | – | – | – | – |
| C#CCN1CCN(Cc2ccc(O)c3ncccc23)CC1 [HLA20, 5-(4-propargylpiperazin-1-ylmethyl)-8-hydroxyquinoline] | – | 1.57 | 0.025 | 0.70 | 37.02 | -1.6 | -0.16 | 26.1% |

— US8058442B2 (Technion Research and Development Foundation Ltd., priority 2002, dated 2011)
